Patent US5362738A, “Tricyclic pyridone derivatives” (Hoffmann-La Roche Inc., priority 1990, dated 1994)

How the values were obtained:
[1] = system: spasmodic seizures caused by pentetrazole; assay: antipentetrazole test (oral, mice); format: in vivo; conditions: Mus musculus, 0.5 h, p.o., 120 mg/kg pentetrazole i.p. 30 minutes later, 10 animals per dosage, Probit method, dosage protecting 50% of animals
Protocol: As mentioned above, the compounds of formula I have valuable pharmacological properties. In particular, they display pronounced muscle relaxant, sedative-hypnotic, anticonvulsive and/or anxiolytic properties and have a low toxicity.
(§1) In this animal experiment the compound under investigation is administered orally to mice and 30 minutes later there are administered intraperitoneally 120 mg/kg of pentetrazole, which causes emprosthotonus and tonic stretchings of the fore and/or hind limbs in unprotected animals 1-4 minutes after the injection. 10 experimental animals are used per dosage of test substance. After counting the protected experimental animals the ED50 is determined according to the Probit method. The ED50 is that dosage which protects 50% of the experimental animals from the spasmodic seizures caused by pentetrazole. The results which have been obtained with representative members of the class of compound defined by formula I in the experiment described previously are compiled in the following Table. Moreover, the Table contains data concerning the acute toxicity (LD50) of some of these compounds in mg/kg in the case of single oral administration to mice.

[2] = acute toxicity (LD50), single oral administration to mice; conditions: mouse, in vivo, p.o.
Protocol: as §1

Work on `COC[C@H]1CCCN1C(=O)c1cc(-c2ccccc2)c(=O)n2c1-c1sccc1C2` [H, (R)-2-MeOCH2 --Py--, --S--CH=CH--, (R)-1-[(4,6-dihydro-6-oxo-7-phenylthieno[2',3':3,4]pyrrolo[1,2-a]pyridin-9-yl)carbonyl]-2-(methoxymethyl)pyrrolidine] yielded an ED50 [1] of 0.76 mg/kg and an LD50 [2] of 625 mg/kg.
For `COC[C@H]1CCCN1C(=O)c1cc(-c2ccccc2)c(=O)n2c1-c1ccccc1C2` [H, (R)-2-MeOCH2 --Py--, --CH=CH--CH=CH--, (R)-1-[[4,6-dihydro-4-oxo-3-phenylpyrido[2,1-a]isoindol-1-yl]carbonyl]-2-(methoxymethyl)pyrrolidine], the ED50 [1] was 2.3 mg/kg and the LD50 [2] was 1500 mg/kg.
In the case of `O=C(c1cc(-c2ccccc2)c(=O)n2c1-c1sccc1C2)N1CCOCC1` [H, Morpholino, --S--CH=CH--, 4-[(4,6-dihydro-6-oxo-7-phenylthieno[2',3':3,4]pyrrolo[1,2-a]pyridin-9-yl)carbonyl]-morpholine], the ED50 [1] was 1.32 mg/kg and the LD50 [2] was 5000 mg/kg.
Compound `CO[C@H]1CCN(C(=O)c2cc(-c3ccccc3)c(=O)n3c2-c2sccc2C3)C1` [H, 3-MeO-pyrrolidino, --S--CH=CH--, (S)-1-[(4,6-dihydro-6-oxo-7-phenylthieno[2',3':3,4]pyrrolo[1,2-a]-pyridin-9-yl)carbonyl]-3-methoxypyrrolidine] has an ED50 [1] of 1.7 mg/kg and an LD50 [2] of 375 mg/kg.
Work on `COC1CN(C(=O)c2cc(-c3ccccc3)c(=O)n3c2-c2c(Cl)cccc2C3)C1` [H, 3-MeO-azetidino, --CCl=CH--CH=CH--, 1-[(10-chloro-4,6-dihydro-4-oxo-3-phenylpyrido[2,1-a]isoindol-1-yl)carbonyl]-3-methoxyazetidine] yielded an ED50 [1] of 2.2 mg/kg.
`CN1CCN(C(=O)c2cc(-c3ccccc3)c(=O)n3c2-c2ccccc2C3)CC1.Cl` [H, 4-Me-piperazino, --CH=CH--CH=CH--, 1-[(4,6-dihydro-4-oxo-3-phenylpyrido[2,1-a]isoindol-1-yl)carbonyl]-4-methyl-piperazine hydrochloride] gave an ED50 [1] of 5.7 mg/kg and an LD50 [2] of 312 mg/kg.
`COC1CN(C(=O)c2cc(-c3ccccc3)c(=O)n3c2-c2sccc2C3)C1` [H, 3-MeO-azetidino, --S--CH=CH--, 1-[(4,6-dihydro-6-oxo-7-phenylthieno[2',3':3,4]pyrrolo[1,2-a]pyridin-9-yl)-carbonyl]-3-methoxyazetidine] showed an ED50 [1] of 2.1 mg/kg and an LD50 [2] of 2500 mg/kg.
`CN(C)C(=O)c1cc(-c2ccccc2)c(=O)n2c1-c1ccccc1C2` [H, Me2 N--, --CH=CH--CH=CH--, N,N-dimethyl-4,6-dihydro-4-oxo-3-phenylpyrido[2,1-a]isoindole-1-carboxamide] showed an ED50 [1] of 0.73 mg/kg and an LD50 [2] of 375 mg/kg.
Compound `COC1CN(C(=O)c2cc(-c3ccccc3)c(=O)n3c2-c2ccccc2C3)C1` [H, 3-MeO-azetidino, --CH=CH--CH=CH--, 1-[(4,6-dihydro-4-oxo-3-phenylpyrido[2,1-a]isoindol-1-yl)carbon-yl]-3-methoxyazetidine] has an ED50 [1] of 0.39 mg/kg.
